Test results from patent US4401656A, “N-Substituted dimeric cyclopeptide derivatives” (Ayerst, McKenna & Harrison, Ltd., priority 1980, dated 1983).

Tests used:
Serratia marcescens = test: serial broth dilution, growth inhibition; assay type: cell-based; conditions: nutrient broth, incubated at 37° C. for 2 days
Method: (§1) Grove and W. A. Randall in "Assay Methods of Antibiotics", Med. Encycl. Inc., New York, 1955. […] 289.
(§2) For example, by employing a test like the serial broth dilution, see Grove and Randall, cited above, in which dilutions of the compounds of this invention in nutrient broth are inoculated with the microorganisms or fungi, described above, incubated at 37° C. for 2 days, respectively, and examined for the presence of growth, it may be shown that the preferred compounds N'N'-dicyclohexyl-α,α'-diisopropyl-2,5,8,11,14,17-hexaoxo-1,4,7,10,13,16-hexaazacyclooctadecane-1,10-diacetamide, isomer L, (Example 1), N'N'-dicyclohexyl-α,α'-diisopropyl-2,5,8,11,14,17-hexaoxo-1,4,7,10,13,16-hexaazacyclooctadecane-1,10-diacetamide, isomer M, (Example 1), and α,α'-diphenyl-N'N'-dicyclohexyl-2,5,8,11,14,17-hexaoxo-1,4,7,10,13,16-hexaazacyclooctadecane-1,10-diacetamide, isomer L, (Example 1) are able to inhibit growth totally in this system of Klebsiella pneumoniae and Serratia marcescens at a concentration of 100 mcg/ml.

Klebsiella pneumoniae = test: serial broth dilution, growth inhibition; assay type: cell-based; conditions: nutrient broth, incubated at 37° C. for 2 days
Method: as §1, §2

SMILES: CC(C)C(C(=O)NC1CCCCC1)N1CC(=O)NCC(=O)NCC(=O)N(C(C(=O)NC2CCCCC2)C(C)C)CC(=O)NCC(=O)NCC1=O (stereo not drawn) [N,N'-Dicyclohexyl-α,α'-diisopropyl-2,5,8,11,14,17-hexaoxo-1,4,7,10,13,16-hexaazacyclooctadecane-1,10-diacetamide]
- concentration able to inhibit growth totally (Serratia marcescens): 100 µg/mL
- concentration able to inhibit growth totally (Klebsiella pneumoniae): 100 µg/mL

SMILES: O=C1CNC(=O)CN(C(C(=O)NC2CCCCC2)c2ccccc2)C(=O)CNC(=O)CNC(=O)CN(C(C(=O)NC2CCCCC2)c2ccccc2)C(=O)CN1 (stereo not drawn) [α,α'-diphenyl-N,N'-dicyclohexyl-2,5,8,11,14,17-hexaoxo-1,4,7,10,13,16-hexaazacyclooctadecane-1,10-diacetamide]
- concentration able to inhibit growth totally (Serratia marcescens): 100 µg/mL
- concentration able to inhibit growth totally (Klebsiella pneumoniae): 100 µg/mL
